Measured values from PubChem BioAssay AID720622 (The Scripps Research Institute Molecular Screening Center, 2013).

assay: whole-trypanosome antiproliferative activity – absorbance, counter-screen for T. brucei MetRS inhibitor project, late-stage follow-up (AID 720622); settings: T. brucei bloodstream form 427 growth, AlamarBlue fluorescence, 48 h; run 1

SMILES | IC50
O=C1[C@@H]2Cc3c([nH]c4ccccc34)C(c3cccc([N+](=O)[O-])c3)N2C(=O)CN1CCCO (some centres not stated) | > 10 µM
CC(=O)c1c[nH]c(C(=O)NCc2cccc(C(F)(F)F)c2)c1 | > 10 µM
CCCCCCCCCC1NC(C(=O)O)Cc2c1[nH]c1ccccc21 (configuration not stated) | > 10 µM
CN(Cc1cc(Cl)cc(Cl)c1)[C@H]1C[C@H]2c3[nH]c4ccccc4c3CCN2C(=O)[C@H]1CO | 1.97 µM
C[C@H](O)[C@@H]1C(=O)N2CCc3c([nH]c4ccccc34)[C@@H]2C[C@@H]1N(C)Cc1ccc2c(c1)OCO2 | > 10 µM
COc1ccccc1-n1c(SCC(=O)Nc2ccc(Cl)cc2)nc(O)c(Cc2ccccc2)c1=O | > 10 µM
CCO[C@H]1OC(C(=O)NCc2nc3ccccc3[nH]2)=C[C@@H](c2ccc(Br)cc2)[C@@H]1CCCO | > 10 µM
O=C(CCC(=O)Nc1cccc([N+](=O)[O-])c1)NN=Cc1cccs1 | > 10 µM
O=C(Cn1cc(C(=O)C(=O)N2CCOCC2)c2ccccc21)Nc1cccc(C(F)(F)F)c1 | 3.53 µM
O=C(NCc1nc2ccccc2[nH]1)C1=C[C@@H](C2CC2)C[C@@H](OCc2ccc(CO)cc2)O1 | > 10 µM
O=C(Cn1cnc2ccccc21)Nc1cccc([N+](=O)[O-])c1 | > 10 µM
COc1ccc2[nH]c3nc(SCC(=O)Nc4ccc5c(c4)OCO5)nnc3c2c1 | > 10 µM
COc1cccc(NC(=O)CSc2nnc3c(n2)[nH]c2ccc(C)cc23)c1 | > 10 µM
O=C(NCCc1nc2ccccc2[nH]1)c1ccc(Cl)c([N+](=O)[O-])c1 | 4.97 µM
Clc1ccc(-c2nnc(SCc3nc4ccccc4[nH]3)o2)c(Cl)c1 | > 10 µM
COc1ccccc1NS(=O)(=O)c1cccc(NC(=O)Nc2ccccc2)c1 | 6.06 µM
O=C(NNC(=O)c1ccc(-n2cncn2)c([N+](=O)[O-])c1)c1ccc(Cl)cc1 | > 10 µM
Brc1cnc2nc(SCc3nc4ccccc4[nH]3)[nH]c2c1 | > 10 µM
CC(C)(C)[C@H]1C=C(C(=O)NCc2nc3ccccc3[nH]2)O[C@@H](OCc2ccc(CO)cc2)C1 | > 10 µM
CN1CC(=O)N2C(c3cccc([N+](=O)[O-])c3)c3[nH]c4ccccc4c3C[C@H]2C1=O (some centres not stated) | > 10 µM
O=C(Nc1ccc(F)c(Cl)c1)C1CC(=O)n2c(nc3ccccc32)N1 (configuration not stated) | > 10 µM
O=C(NCc1nc2ccccc2[nH]1)C1=C[C@H](c2ccc(Br)cc2)C[C@H](OCCCCO)O1 | > 10 µM
O=C(CN1CCSC1=NCc1ccccc1)c1ccc(Cl)c(Cl)c1 | > 10 µM
O=C(NCc1nc2ccccc2[nH]1)C1=C[C@H](c2ccc(Br)cc2)C[C@H](OCc2ccc(CO)cc2)O1 | 9.73 µM
CN(CC(=O)Nc1ccc(Cl)cc1)C(=O)c1ccc(-n2cncn2)c([N+](=O)[O-])c1 | > 10 µM
O=C(NCc1nc2ccccc2[nH]1)C1=C[C@H](c2csc3ccccc23)C[C@H](OCCCCO)O1 | 3.96 µM
CCO[C@@H]1OC(C(=O)NCc2nc3ccccc3[nH]2)=C[C@H](c2ccc(Br)cc2)[C@H]1CCCO | > 10 µM

SMILES | IC50
Clc1ccc(OCCSCc2nc3ccccc3[nH]2)cc1 | > 10 µM
O=C(NCc1nc2ccccc2[nH]1)C1=C[C@@H](c2ccccc2)C[C@@H](OCc2ccc(CO)cc2)O1 | > 10 µM
CCOC(=O)N1CCC(Nc2c(Nc3ccc(F)cc3)c(=O)c2=O)CC1 | 8.72 µM
O=C(CC=NOCc1ccc([N+](=O)[O-])cc1)Nc1ccc(Cl)cc1 | > 10 µM
O=C(N/C(=C\c1cccnc1)c1nc2ccccc2[nH]1)c1cccc(Br)c1 | > 10 µM
CC(=O)c1ccc(N2CCN(C(=O)CCCn3c(=O)[nH]c4ccc(Br)cc4c3=O)CC2)cc1 | > 10 µM
O=C(C[C@H]1C(=O)N(Cc2ccccc2)C[C@@H]1c1ccc(Br)cc1)Nc1ccc(Br)cc1 | 4.03 µM
O=C1CC(SCc2nc3ccccc3[nH]2)C(=O)N1c1cccc(Cl)c1 (configuration not stated) | > 10 µM
CC(C)(C)[C@@H]1C=C(C(=O)NCc2nc3ccccc3[nH]2)O[C@H](OCc2ccc(CO)cc2)C1 | > 10 µM
O=C(NCc1nc2ccccc2[nH]1)C1=C[C@H](C2CC2)C[C@H](OCc2ccc(CO)cc2)O1 | > 10 µM
CC(CC(=O)Nc1cccc(Br)c1)=NNC(=O)c1ccc(O)cc1O | > 10 µM
O=C(NCc1nc2ccccc2[nH]1)C1=C[C@@H](c2ccc(Br)cc2)C[C@@H](OCc2ccc(CO)cc2)O1 | 4.38 µM
O=C(NCc1nc2ccccc2[nH]1)C1=C[C@@H](c2ccc3c(c2)OCO3)C[C@@H](OCCCCO)O1 | > 10 µM
O=C(NCc1nc2ccccc2[nH]1)C1=C[C@H](c2ccc3c(c2)OCO3)C[C@H](OCCCCO)O1 | > 10 µM
O=C(NCc1nc2ccccc2[nH]1)C1=C[C@@H](c2ccc(Br)cc2)C[C@@H](OCCCCO)O1 | 6.6 µM
Cc1[nH]c2ccc(Br)cc2c(=O)c1CN1CCCCCC1 | > 10 µM
O=C(NNC(=O)c1cc(-c2ccc(Cl)c(Cl)c2)nc2ccccc12)Nc1ccccc1 | 5.24 µM
O=C(NCc1nc2ccccc2[nH]1)C1=C[C@@H](c2csc3ccccc23)C[C@@H](OCCCCO)O1 | > 10 µM
Oc1c(Cl)cc(Cl)cc1CNc1nc2ccccc2[nH]1 | > 10 µM
CC(C)OCCCN1CC(=O)N2C(c3cccc([N+](=O)[O-])c3)c3[nH]c4ccccc4c3C[C@H]2C1=O (some centres not stated) | > 10 µM
Cc1ccc(NC(=O)CN(C)C(=O)CCSc2ccc(F)cc2)cc1 | > 10 µM
O=C1CC(N(CCc2ccccc2)C(=S)Nc2ccccc2)C(=O)N1c1ccc(Br)cc1 (configuration not stated) | 1.95 µM
O=C(CC(=O)Nc1cccc(Cl)c1)NN=Cc1ccccc1 | > 10 µM
COc1ccc(OCC(O)CNC(=O)Nc2ccc(Cl)cc2)cc1 (configuration not stated) | > 10 µM
O=C(NCc1nc2ccccc2[nH]1)C1=C[C@H](c2ccccc2)C[C@H](OCc2ccc(CO)cc2)O1 | > 10 µM
COc1ccc(CNC(=O)CSc2nnc3c(n2)[nH]c2ccc(F)cc23)cc1 | > 10 µM
O=C(CC=NOCc1ccc([N+](=O)[O-])cc1)Nc1ccc(Br)cc1 | > 10 µM

same assay, conditions: T. brucei bloodstream form 427 growth, AlamarBlue fluorescence, 48 h; run 2

SMILES | IC50
CN(Cc1cc(Cl)cc(Cl)c1)[C@H]1C[C@H]2c3[nH]c4ccccc4c3CCN2C(=O)[C@H]1CO | 2.62 µM
O=C(Cn1cc(C(=O)C(=O)N2CCOCC2)c2ccccc21)Nc1cccc(C(F)(F)F)c1 | 1.8 µM
O=C1CC(N(CCc2ccccc2)C(=S)Nc2ccccc2)C(=O)N1c1ccc(Br)cc1 (configuration not stated) | 2.74 µM
